Laboratory results: patent publication US6075054A, “Ortho-substituted benzoylguanidines, process for their preparation, their use as a medicament or diagnostic, and medicament comprising them” (Hoechst Aktiengesellschaft, priority 1997, dated 2000)
Structures can show the parent of a compound that is named as a salt.

Target: T1, Na^+ /H^+ exchanger of rabbit erythrocytes (Oryctolagus cuniculus, UniProt P23791)
T1 construct: endogenous in cells; host or cells: erythrocytes in whole blood of White New Zealand rabbits (Ivanovas) fed 2% cholesterol
Experiment: Inhibition of the Na^+ /H^+ exchanger of rabbit erythrocytes (amiloride-sensitive sodium influx, flame photometry)
Format: cell-based, rabbit (White New Zealand)
Conditions: erythrocytes of rabbits on 2% cholesterol diet; hyperosmolar salt-sucrose medium, pH 7.4, 37° C.
Text: Inhibition of the Na^+ /H^+ exchanger of rabbit erythrocytes White New Zealand rabbits (Ivanovas) received a standard diet with 2% cholesterol for six weeks in order to activate the Na^+ /H^+ exchange and thus to be able to determine the Na^+ -influx into the erythrocytes via Na^+ /H^+ exchange by flame photometry. The blood was taken from the auricular arteries and rendered incoagulable by 25 IU of potassium-heparin. A part of each sample was used for the duplicate determination of the hematocrits by centrifugation. Aliquots of 100 μl in each case were used for the measurement of the Na^+ starting content of the erythrocytes.
In order to determine the amiloride-sensitive sodium influx, 100 μl of each blood sample were incubated in 5 ml in each case of a hyperosmolar salt-sucrose medium (mmol/l: 140 NaCl, 3 KCl, 150 sucrose, 0.1 ouabain, 20 tris-hydroxymethylaminomethane) at pH 7.4 and 37° C. The erythrocytes were then washed three times with ice-cold MgCl2 -ouabain solution (mmol/l: 112 MgCl2, 0.1 ouabain) and hemolyzed in 2.0 ml of distilled water. The intracellular sodium content was determined by flame photometry.
The Na^+ net influx was calculated from the difference between sodium starting values and the sodium content of the erythrocytes after incubation. […]

T1 sequence (P23791 whole entry): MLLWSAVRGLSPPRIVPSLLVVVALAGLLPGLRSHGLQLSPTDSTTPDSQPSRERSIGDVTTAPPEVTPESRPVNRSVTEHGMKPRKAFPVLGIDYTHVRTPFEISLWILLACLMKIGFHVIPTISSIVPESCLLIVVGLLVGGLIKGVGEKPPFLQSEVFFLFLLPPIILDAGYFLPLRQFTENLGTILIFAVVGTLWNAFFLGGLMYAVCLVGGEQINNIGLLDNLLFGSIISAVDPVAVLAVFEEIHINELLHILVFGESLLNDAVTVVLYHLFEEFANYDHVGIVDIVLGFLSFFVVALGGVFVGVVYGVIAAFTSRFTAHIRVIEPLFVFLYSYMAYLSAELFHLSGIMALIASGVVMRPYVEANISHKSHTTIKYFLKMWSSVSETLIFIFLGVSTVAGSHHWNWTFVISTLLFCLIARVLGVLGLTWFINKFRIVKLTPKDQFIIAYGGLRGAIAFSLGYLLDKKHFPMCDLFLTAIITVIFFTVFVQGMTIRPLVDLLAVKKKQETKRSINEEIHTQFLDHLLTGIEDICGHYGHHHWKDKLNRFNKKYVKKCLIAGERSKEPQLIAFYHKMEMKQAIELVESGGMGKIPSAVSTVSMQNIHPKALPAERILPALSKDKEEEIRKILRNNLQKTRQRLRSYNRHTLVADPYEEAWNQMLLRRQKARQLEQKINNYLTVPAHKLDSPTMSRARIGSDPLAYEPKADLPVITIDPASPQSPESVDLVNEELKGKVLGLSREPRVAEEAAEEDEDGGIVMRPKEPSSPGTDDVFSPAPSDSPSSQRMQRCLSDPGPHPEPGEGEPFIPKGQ

- IC50: 1.2 nM
SMILES: Cc1cc(C(C)CO)c(C(F)(F)F)cc1C(=O)N=C(N)N (racemic) [Example 1, hydrochloride]
